# Results published in EPA's ToxValDB 9.5 (doi:10.2903/j.efsa.2017.4874).
# What was measured:
# [1] = system: Anas platyrhynchos; conditions: short-term; oral; feed; mortality
# [2] = system: Apis mellifera; conditions: acute, mortality
# [3] = system: Colinus virginianus; conditions: for LD50: acute, oral, mortality
# [4] = system: Danio rerio; conditions: subchronic; duration: 35 days; reproduction
# [5] = system: Daphnia magna; conditions: chronic/long-term; duration: 21 days; reproduction
# [6] = system: Folsomia candida; conditions: chronic/long-term; mortality
# [7] = system: Mus musculus; conditions: chronic
# [8] = system: Oncorhynchus mykiss; conditions: acute; duration: 96 hours; mortality
# [9] = system: Oryctolagus sp.; conditions: developmental; development
# [10] = system: Rattus norvegicus; conditions: oral
# [11] = system: Tagia sp.; conditions: chronic/long-term; growth
# [12] = system: Aphidius rhopalosiphi; experiment: LR50; higher = less toxic; conditions: not reported; mortality
compound,measurement,setting,value
O=C(Nc1ccccc1)Nc1ccnc(Cl)c1 [Forchlorfenuron],LD50,[1],> 3120 mg/kg-day
same,LD50,[2]; dermal,> 30 µg/piece
same,LD50,"[2]; oral, unspecified",> 34.1 µg/piece
same,LD50,[3]; diet,> 3120 mg/kg-day
same,LD50,[3],> 2250 mg/kg-day
same,NOEC,[3]; reproduction developmental,88.4 mg/kg-day
same,NOEC,[4],1.01 mg/L
same,NOEC,[5],1.96 mg/L
same,NOEC,[6],3.72 mg/kg
same,NOAEL,"[7]; duration: 24 months, histopathology: neoplastic",5 mg/kg-day
same,NOAEL,[7]; histopathology: nonneoplastic,4.9 mg/kg-day
same,LC50,[8],1.93 µg/mL
same,NOAEL,[9],50 mg/kg-day
same,LD50,"[10]; acute, mortality",4920 mg/kg-day
same,NOAEL,"[10]; reproduction developmental, diet, body weight",11 mg/kg-day
same,NOAEL,"[10]; subchronic, duration: 90 days, organ weight",16.2 mg/kg-day
same,NOEC,[11],0.3 mg/kg
same,LR50,[12],> 10 g/ha
